From patent US6761896B1, “Skin cosmetic care system and method” (Unilever Home & Personal Care USA, division of Conopco, Inc., priority 1998, dated 2004)
Read-outs that look alike come from different tables or passages of the source.

Tested on: pig epidermal cells
Assay: DNA synthesis (3H-thymidine) of pig skin organ cultures, epidermis
Format: cell-based
Conditions: for activity at 20 µM / activity at 200 µM / activity at 2000 µM: Sus scrofa, read-out: DNA synthesis AS % OF CONTROL
Protocol: Freshly excised 2-3 week old piglet skins were obtained from Buckshire Farms, Pa. The pig skins were washed exhaustively first with soap and then with 10× antibiotic containing medium (penicillin, streptomycin). The pig skins were then dermatomed at 200 microns thickness. Seven (7) mm punch biopsies were made from these washed pig skins. The biopsies are then washed again with the 10× antibiotic medium and finally with normal DMEM (2 washes). Three (3) biopsies were incubated in each transwell plates, epidermal side up, with 1 ml of serum free DMEM fed from the bottom of the plates. Experiments were started 3 days after the biopsies were equilibrated under these conditions. Three (3) days after equilibrating the pig skin organ cultures prepared as described above, the medium was removed, 1 ml of fresh medium was added, and the wells were treated with different concentrations of lactic acid by adding from a 100 fold concentrated stock in water, directly into the medium. Simultaneous with the addition of lactic acid, selected cultures were also exposed to the South or North pole of a bar magnet or to the Bioflex magnet. The magnets were placed on top of the culture dish to expose the epidermis directly (the organ culture is carried out with the epidermis side on top). Three (3) days later, medium was changed, lactic acid was re-added, and 10 uCi ^3H-thymidine was added to each well. Plates were incubated for a further 24 hrs. At the end of the incubation period, biopsies were removed, washed in PBS for 1 hr with shaking, and incubated overnight in 10 ml of 2M sodium bromide with shaking to split the epidermis from the dermis. The biopsies were washed with PBS, and the epidermis was peeled off from dermis carefully using a scalpel. The epidermis and dermis were digested with 1 ml of 0.5N NaOH overnight at 50 C, 200 ul was used for counting the radioactivity. The DNA synthesis rate was calculated as cpm/7 mm punch biopsy for dermis or epidermis and in some experiments expressed also as % of controls. All organ culture experiments were conducted with at least 6 replicates, and the mean+/−standard deviation was calculated for statistical analysis using Students t-test.

[1] = Example 5, 0.02 mM LA + South pole of bar magnet
[2] = Example 5, 0.02 mM LA, no magnet
[3] = Example 5, 0.2 mM LA + South pole of bar magnet
[4] = Example 5, 0.2 mM LA, no magnet
[5] = Example 5, 2.0 mM LA + South pole of bar magnet
[6] = Example 5, 2.0 mM LA, no magnet
[7] = Example 6, 0.2 mM LA + North pole
[8] = Example 6, 0.2 mM LA + South pole
[9] = Example 6, 0.2 mM LA, no magnet

## CC(O)C(=O)O (stereo not drawn) [LA, lactic acid]
[1]
  DNA SYNTHESIS (CPM/BIOPSY) MEAN +/- STD: 7915 +/− 2807 CPM/BIOPSY
  activity at 20 µM: 182%
[2]
  DNA SYNTHESIS (CPM/BIOPSY) MEAN +/- STD: 4670 +/− 497 CPM/BIOPSY
  activity at 20 µM: 107%
[3]
  DNA SYNTHESIS (CPM/BIOPSY) MEAN +/- STD: 8402 +/− 512 CPM/BIOPSY
  activity at 200 µM: 193%
[4]
  DNA SYNTHESIS (CPM/BIOPSY) MEAN +/- STD: 5030 +/− 958 CPM/BIOPSY
  activity at 200 µM: 115%
Example 5, 2 mM LA + South pole
  epidermal proliferation, % over control: 165%
[5]
  DNA SYNTHESIS (CPM/BIOPSY) MEAN +/- STD: 11523 +/− 2123 CPM/BIOPSY
  activity at 2000 µM: 265%
Example 5, 2 mM LA + South pole vs additive response
  synergy of LA and South pole on epidermal proliferation: Synergies were observed
Example 5, 2 mM LA alone
  epidermal proliferation, % over control: 43%
[6]
  DNA SYNTHESIS (CPM/BIOPSY) MEAN +/- STD: 6216 +/− 1035 CPM/BIOPSY
  activity at 2000 µM: 143%
Example 5, 0.02 and 0.2 mM lactic acid, no magnet
  effect on epidermal proliferation: no significant effect
[7]
  DNA SYNTHESIS (CPM/BIOPSY) MEAN +/- STD: 69726 +/− 29913 CPM/BIOPSY
  proliferative response, % over control: 112%
  activity at 200 µM: 211%
Example 6, 0.2 mM LA + North pole vs north alone control
  synergy of LA with North pole on epidermal proliferation: not synergistic
[8]
  DNA SYNTHESIS (CPM/BIOPSY) MEAN +/- STD: 81393 +/− 11738 CPM/BIOPSY
  proliferative response, % over control: 146%
  activity at 200 µM: 246%
Example 6, 0.2 mM LA + South pole vs LA alone or South pole alone
  synergy of LA with South pole on epidermal proliferation: synergistic
[9]
  DNA SYNTHESIS (CPM/BIOPSY) MEAN +/- STD: 41076 +/− 24767 CPM/BIOPSY
  activity at 200 µM: 124%
Example 6, 0.2 mM Lactic acid alone
  effect on epidermal proliferation: no significant effect
